The text below walks through data of patent US8703715B2, “Methods for inhibiting growth of prolactin-responsive cancer cells with cyclosporine a or other cyclophilin inhibitors” (The Trustees of the University of Pennsylvania, priority 2004, dated 2014).

One data set relates to breast cancer cells. Conditions: breast cancer cells in culture.
The conditions of data set [1]: human patients, approved indications (immunosuppressive use); cited from earlier work.

cyclosporine A: the “media concentration having profound effects on survival of breast cancer cells” value in the data set with breast cancer cells is not below 20 ng/mL. Moreover, the Peak serum concentrations in data set [1] was 2 to 8 µg/mL.
